# BigSolDB 2.1
# Settings: 298.15 K
SMILES,solubility (mole fraction) (in ethyl acetate),solubility (mole fraction) (in methanol),solubility (mole fraction) (in n-butyl acetate),solubility (mole fraction) (in n-propyl acetate)
O=c1c(O)c(-c2ccc(O)cc2)oc2cc(O)cc(O)c12,0.00452,0.00324,0.0024,0.00275
Oc1ccc(/C=C/c2cc(O)cc(O)c2)cc1,0.00895,0.0189,0.00463,0.00596
O=c1c(O)c(-c2ccc(O)c(O)c2)oc2cc(O)cc(O)c12,0.00223,0.00144,0.00184,0.0019
OC[C@H]1O[C@@H](Oc2cc(O)cc(/C=C/c3ccc(O)cc3)c2)[C@H](O)[C@@H](O)[C@@H]1O,6.73e-05,0.0086,1.96e-05,3.37e-05
